{"source": "ChEMBL document CHEMBL3414469", "about": "“Targeting DNA methylation with small molecules: what's next?” (J Med Chem, 2015)", "key": {"[1]": {"biological_target": "DNA (cytosine-5)-methyltransferase 1 (Homo sapiens, UniProt P26358)", "sequence (P26358 whole entry)": "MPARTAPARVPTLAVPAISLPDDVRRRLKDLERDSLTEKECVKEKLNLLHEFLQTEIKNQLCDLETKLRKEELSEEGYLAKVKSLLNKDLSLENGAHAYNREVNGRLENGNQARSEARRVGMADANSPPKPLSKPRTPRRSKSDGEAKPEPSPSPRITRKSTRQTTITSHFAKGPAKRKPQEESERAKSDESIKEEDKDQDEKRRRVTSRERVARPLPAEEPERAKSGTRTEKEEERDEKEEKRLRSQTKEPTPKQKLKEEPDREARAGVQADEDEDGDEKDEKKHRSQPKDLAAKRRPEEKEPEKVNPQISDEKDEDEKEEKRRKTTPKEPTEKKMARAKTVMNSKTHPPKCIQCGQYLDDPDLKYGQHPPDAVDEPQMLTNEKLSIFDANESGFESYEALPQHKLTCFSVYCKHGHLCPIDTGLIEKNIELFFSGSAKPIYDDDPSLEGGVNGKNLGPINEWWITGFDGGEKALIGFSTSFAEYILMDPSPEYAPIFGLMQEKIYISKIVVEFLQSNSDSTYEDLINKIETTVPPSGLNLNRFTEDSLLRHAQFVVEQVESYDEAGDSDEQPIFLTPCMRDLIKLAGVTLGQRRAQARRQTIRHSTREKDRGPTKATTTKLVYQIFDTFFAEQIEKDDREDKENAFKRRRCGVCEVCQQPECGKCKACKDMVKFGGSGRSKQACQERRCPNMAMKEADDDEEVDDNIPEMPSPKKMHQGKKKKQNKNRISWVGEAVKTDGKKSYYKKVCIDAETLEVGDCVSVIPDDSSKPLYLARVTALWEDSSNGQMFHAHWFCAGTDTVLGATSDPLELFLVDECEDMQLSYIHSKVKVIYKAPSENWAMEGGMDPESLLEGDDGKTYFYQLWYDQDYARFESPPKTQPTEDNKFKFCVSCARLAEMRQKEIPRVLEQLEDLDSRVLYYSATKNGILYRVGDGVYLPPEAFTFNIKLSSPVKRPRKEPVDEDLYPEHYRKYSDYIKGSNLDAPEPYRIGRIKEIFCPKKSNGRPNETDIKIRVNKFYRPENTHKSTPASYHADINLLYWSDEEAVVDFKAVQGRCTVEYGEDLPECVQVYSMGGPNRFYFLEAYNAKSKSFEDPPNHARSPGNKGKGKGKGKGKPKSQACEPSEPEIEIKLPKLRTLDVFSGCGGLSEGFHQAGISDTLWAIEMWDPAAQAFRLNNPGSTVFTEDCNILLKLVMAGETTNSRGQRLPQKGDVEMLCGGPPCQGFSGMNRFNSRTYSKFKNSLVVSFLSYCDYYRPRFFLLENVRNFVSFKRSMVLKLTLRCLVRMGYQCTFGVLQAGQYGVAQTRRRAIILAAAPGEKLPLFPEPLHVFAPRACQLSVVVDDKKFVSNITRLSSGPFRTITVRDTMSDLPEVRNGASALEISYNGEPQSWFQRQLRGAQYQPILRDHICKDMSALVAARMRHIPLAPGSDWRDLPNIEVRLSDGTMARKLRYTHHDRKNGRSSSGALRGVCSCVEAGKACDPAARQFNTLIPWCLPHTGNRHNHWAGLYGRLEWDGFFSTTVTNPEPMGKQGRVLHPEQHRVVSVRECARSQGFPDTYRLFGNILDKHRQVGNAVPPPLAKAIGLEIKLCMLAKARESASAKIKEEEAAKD", "assay": "Inhibition of His6-tagged human recombinant DNMT1 expressed in insect Sf9 cells assessed as reduction in DNA methyltransferase activity using 5'-biotinylated 45-bp unmethylated or hemimethylated oligonucleotide substrates and [3H]-AdoMet by liquid scintillation counting method"}, "[2]": {"assay": "Half life in patient with myelodysplastic syndrome dosed via infusion", "assay_type": "ADME, organism-based", "details": "human, in vivo, iv"}, "DNMT3A2/3L complex": {"biological_target": "DNMT3A2/3L complex (Homo sapiens, UniProt Q9Y6K1)", "sequence (Q9Y6K1 whole entry, looked up, one chain of several)": "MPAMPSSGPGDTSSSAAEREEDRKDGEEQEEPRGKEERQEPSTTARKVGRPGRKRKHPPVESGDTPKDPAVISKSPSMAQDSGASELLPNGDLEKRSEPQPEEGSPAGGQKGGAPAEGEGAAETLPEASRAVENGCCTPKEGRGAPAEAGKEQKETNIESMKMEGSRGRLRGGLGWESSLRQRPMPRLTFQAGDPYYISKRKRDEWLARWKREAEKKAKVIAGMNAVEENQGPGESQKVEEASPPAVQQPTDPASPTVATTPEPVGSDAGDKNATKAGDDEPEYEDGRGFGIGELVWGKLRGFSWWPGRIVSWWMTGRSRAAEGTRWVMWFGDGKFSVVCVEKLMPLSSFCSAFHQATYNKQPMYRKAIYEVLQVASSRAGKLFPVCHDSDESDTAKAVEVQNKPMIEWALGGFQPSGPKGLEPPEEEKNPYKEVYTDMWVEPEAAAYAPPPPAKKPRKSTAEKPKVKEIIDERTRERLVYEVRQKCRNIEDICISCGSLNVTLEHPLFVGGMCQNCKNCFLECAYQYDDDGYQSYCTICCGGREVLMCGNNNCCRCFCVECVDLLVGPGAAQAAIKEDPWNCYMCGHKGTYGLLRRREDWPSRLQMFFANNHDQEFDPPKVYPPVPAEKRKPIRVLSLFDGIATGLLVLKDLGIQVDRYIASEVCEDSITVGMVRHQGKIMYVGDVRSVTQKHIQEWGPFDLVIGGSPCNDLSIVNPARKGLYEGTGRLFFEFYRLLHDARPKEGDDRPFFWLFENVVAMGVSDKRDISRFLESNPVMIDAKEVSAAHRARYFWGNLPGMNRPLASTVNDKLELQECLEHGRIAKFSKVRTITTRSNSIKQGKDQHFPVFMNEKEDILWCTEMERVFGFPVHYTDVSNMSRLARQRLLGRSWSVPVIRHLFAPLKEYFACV", "assay": "Inhibition of His6-tagged human recombinant DNMT3A/DNMT3L expressed in insect Sf9 cells assessed as reduction in DNA methyltransferase activity using 5'-biotinylated 45-bp unmethylated or hemimethylated oligonucleotide substrates and [3H]-AdoMet by liquid scintillation counting method"}, "[3]": {"biological_target": "DNA (cytosine-5)-methyltransferase 3A (Homo sapiens, UniProt Q9Y6K1)", "sequence (Q9Y6K1 whole entry, looked up)": "as the sequence (Q9Y6K1 whole entry, looked up, one chain of several) above", "assay": "Inhibition of His6-tagged human recombinant DNMT3a expressed in insect Sf9 cells assessed as reduction in DNA methyltransferase activity using 5'-biotinylated 45-bp unmethylated or hemimethylated oligonucleotide substrates and [3H]-AdoMet by liquid scintillation counting method"}, "[4]": {"biological_target": "DNA (cytosine-5)-methyltransferase 3B (Homo sapiens, UniProt Q9UBC3)", "assay": "Inhibition of His6-tagged human recombinant DNMT3b expressed in insect Sf9 cells assessed as reduction in DNA methyltransferase activity using 5'-biotinylated 45-bp unmethylated or hemimethylated oligonucleotide substrates and [3H]-AdoMet by liquid scintillation counting method"}, "[5]": {"assay": "Half life in sc dosed patient with myelodysplastic syndrome", "details": "human, in vivo"}}}
{"smiles": "O=[N+]([O-])c1ccc(C2=NC[C@H](CN3CCCC3)O2)cc1", "values": [{"measurement": "IC50", "setting": "[1]", "result": 150, "unit": "µM"}]}
{"smiles": "O=C(O)[C@H](Cc1c[nH]c2ccccc12)N1C(=O)C=CC1=O", "values": [{"measurement": "IC50", "setting": "[1]", "result": 20, "unit": "µM"}]}
{"smiles": "Nc1ncn([C@H]2C[C@H](O)[C@@H](CO)O2)c(=O)n1", "note": "[DECITABINE]", "values": [{"measurement": "half-life", "setting": "[2]", "result": 10, "unit": "min"}]}
{"smiles": "O=C1C(Cl)=C(Cl)C(=O)c2ccccc21", "note": "[Dichlon]", "values": [{"measurement": "IC50", "setting": "[1]", "result": 1.6, "unit": "µM"}, {"measurement": "IC50", "setting": "DNMT3A2/3L complex", "result": 0.5, "unit": "µM"}]}
{"smiles": "O=[N+]([O-])c1cc(S(=O)(=O)Nc2ccc(O)c3ccccc23)ccc1Cl", "values": [{"measurement": "IC50", "setting": "[1]", "result": 1.2, "unit": "µM"}, {"measurement": "IC50", "setting": "[3]", "result": 38, "unit": "µM"}]}
{"smiles": "O=C(O[C@@H]1Cc2c(O)cc(O)cc2O[C@@H]1c1cc(O)c(O)c(O)c1)c1cc(O)c(O)c(O)c1", "note": "[EPIGALOCATECHIN GALLATE]", "values": [{"measurement": "IC50", "setting": "[1]", "result": 0.5, "unit": "µM"}]}
{"smiles": "Cc1cc(Nc2ccc(NC(=O)c3ccc(Nc4ccnc5ccccc45)cc3)cc2)nc(N)n1", "values": [{"measurement": "IC50", "setting": "[4]", "result": 7.5, "unit": "µM"}]}
{"smiles": "O=C(O)[C@H](Cc1c[nH]c2ccccc12)N1C(=O)c2ccccc2C1=O", "values": [{"measurement": "IC50", "setting": "DNMT3A2/3L complex", "result": 315, "unit": "µM"}]}
{"smiles": "CCN(CC)CCNC(=O)c1ccc(N)cc1", "note": "[PROCAINAMIDE]", "values": [{"measurement": "IC50", "setting": "[1]", "result": "> 500", "unit": "µM"}, {"measurement": "IC50", "setting": "DNMT3A2/3L complex", "result": "> 300", "unit": "µM"}]}
{"smiles": "Nc1ncn([C@@H]2O[C@H](CO)[C@@H](O)[C@H]2O)c(=O)n1", "note": "[AZACITIDINE]", "values": [{"measurement": "half-life", "setting": "[5]", "result": 41, "unit": "min"}]}
{"smiles": "CCN(CC)CCNC(=O)c1ccc(NCCCCCCCCCCCCN2C(=O)c3ccccc3C2=O)cc1", "values": [{"measurement": "IC50", "setting": "[1]", "result": 4, "unit": "µM"}, {"measurement": "IC50", "setting": "DNMT3A2/3L complex", "result": 21, "unit": "µM"}]}
{"smiles": "C[C@@H]1O[C@@H](CC(=O)O)CC2=C1C(=O)c1c(O)cccc1C2=O", "note": "[NANAFROCIN]", "values": [{"measurement": "IC50", "setting": "[4]", "result": 0.5, "unit": "µM"}]}
{"smiles": "O=c1c(-c2ccc(O)cc2)coc2cc(O)cc(O)c12", "note": "[GENISTEIN]", "values": [{"measurement": "IC50", "setting": "[1]", "result": 30, "unit": "µM"}, {"measurement": "IC50", "setting": "DNMT3A2/3L complex", "result": "> 100", "unit": "µM"}]}
